Reference: patent publication US8642559B2, “C-terminal domain truncation of mGluR1α by calpain and uses thereof” (priority 2006, dated 2014)
Where a SMILES comes first, the peptide text is derived from it. The star is where a group is joined. Cbz = O=C(OCc1ccccc1)*

How the values were obtained:
mGluR1α [1] = test: Glutamate/NMDA-induced C-terminal truncation of mGluR1α in cultured cortical neurons (immunoblot); format: cell-based; conditions: for block of glutamate-induced truncation of mGluR1α: glutamate 100 μM, antagonist 100 μM
Text: Total cell lysates were separated by SDS-PAGE and probed with an antibody against the carboxyl terminus (residue 1142-1160) of mGluR1α. […] Total cell lysates were probed with an anti-myc antibody. […] Total cell lysates were probed with antibodies against mGluR5, G1uR2/3 and VGluT1 respectively.
Total cell lysate was collected immediately after treatment and subjected to SDS-PAGE and immunoblotting with an antibody against the carboxyl terminus (residues 1142-1160) of mGluR1α (FIG. 2A). […] Neurons were transfected with a calcium phosphate precipitation method modified for high transfection rate (Jian et al., Gene Ther 11:1301-1311, 2004).
Cortical neurons were treated with NMDA at the indicated concentrations for 1 h or treated with NMDA (10 μM) for the indicated times. Total cell lysates were separated by SDS-PAGE and probed with antibodies against mGluR1α1142-1160, Results were normalized over control values and are means±s.e.m. of 4 experiments.
To determine whether activation of mGluR1α itself was required for the truncation, two distinct mGluR1α antagonists were applied.
To further characterize NMDA-induced mGluR1α truncation, the concentration- and time-dependencies of the effects of NMDA were studied. Cortical neurons were first incubated with different concentrations of NMDA for a fixed period of time (1 hour) (FIG. 3F). […] In a following experiment, cortical neurons were incubated with 10 μM NMDA for different durations ranging from 1 to 60 min (FIG. 3G).
Cortical neurons were treated with NMDA (10 μM, 1 h). Total cell lysates were separated by SDS-PAGE and probed with antibodies against spectrin and mGluR1α1142-1160, respectively. Only the degradation bands of spectrin (spectrin DB, at ˜145 KD) are shown. […] In FIG. 4C, purified myc-mGluR1α was digested with μ-calpain at the indicated concentrations (U/ml) for 30 min. The digested material was processed for SDS-PAGE and subjected to silver staining or immunoblots with anti-myc or anti-mGluR1α1142-1160 antibodies. […] The 1st lane was the myc-mGluR1α immunoprecipitated from 293 cells; the 2nd and 3rd lanes were immunoprecipitated myc-mGluR1α digested with indicated concentration of calpain. […] FIG. 4F is the alignment of mGluR1 (902-941) and mGluR5 (889-927) surrounding the calpain cleavage site.
In this set of experiments, we determined which protease(s) mediated NMDA-induced truncation of mGluR1α. […] Cortical neurons were pretreated with a calpain inhibitor, the cell-permeable calpain-inhibitor III, or the caspase inhibitor cpm-VAD-CHO for 2 hours and then incubated in the absence or presence of 100 µM NMDA for 1 hour. […] To further confirm calpain activation by NMDA under our experimental conditions, we determined the levels of the calpain-specific spectrin degradation fragments.

cortical neurons = test: NMDA/DHPG neuronal toxicity in cortical neurons (EthD-1/Calcein AM live/dead); format: cell-based; conditions: for cell death: 24 hours after
Text: In FIGS. 8a and b, cortical neurons were co-transfected with green fluorescent protein (GFP) and vector DNA, myc-mGluR1α or myc-mGluR1α936Δ, respectively. […] Twelve hours later, neurons were stained with EthD-1 to label dead cells. Arrowheads in FIG. 8a indicate EthD-1 positive GFP-expressing neurons. * p<0.05. FIGS. 8c and d are representative photos and bar graphs showing differential roles of endogenous mGluR1 in neuronal toxicity before and after NMDA-induced truncation. Cortical neurons were treated as indicated and were stained with EthD-1 (for dead cells) and calcein AM (for live cells) 24 hours later. * p<0.001.
We then tested whether calpain-mediated truncation of endogenous mGluR1α also alters its roles in excitotoxicity. We used NMDA to elicit mGluR1α truncation and evaluated the roles of mGluR1 in neuronal toxicity by applying DHPG before and after truncation. Fourteen DIV cortical neurons cultured on 18×18 mm coverslips were divided into 6 groups, which received the following treatments, respectively: 1) “Control”: vehicle; 2) “NMDA”: 100 μM NMDA for 1 hour; 3) “DHPG before NMDA”: DHPG, 100 μM, for 1 hour, followed by 100 μM NMDA for 1 hour; 4) “DHPG after NMDA”: NMDA, 100 μM, for 1 hour, followed by 100 μM DHPG for 1 hour; 5) “DHPG+LY before NMDA”: 100 μM DHPG was co-applied with 100 μM LY367385 for 1 hour and followed by 100 μM NMDA for 1 hour; 6) “DHPG+LY after NMDA”: NMDA 100 μM for 1 hour, followed by 100 μM DHPG co-applied with 100 μM LY367385. Twenty-four hours after treatment, all neurons were stained for 20 minutes with 0.5 μM EthD-1 to label dead cells and 2 μM Calcein AM to label live cells. After three washes with culture medium, coverslips were mounted and one microscopy photo was immediately taken from the center area of each coverslip. EthD-1 and Calcein AM positive cells on each photo were then counted. The percentage of cell death was calculated as the number of EthD-1 positive cell/(number of EthD-1 positive cell+number of Calcein AM positive cell)*100%.

Phospho Akt (Ser473) = test: Akt phosphorylation (Ser473) in cortical neurons (Western blot); format: cell-based; conditions: DHPG 50 μM; for phosphorylated Akt levels: 10 min
Description: (§1) Representative current traces recorded from HEK293 cells transfected with either myc-mGluR1α (left panel) or myc-mGluR1α936Δ (right panel) and GIRK1, GIRK2 (top) or TRPC1 (bottom). DHPG (100 μM in extracellular solution) was applied using a fast perfusion system for the duration indicated by the scale bars. Each trace is the average of 5 continuous sweeps. The bar graphs represent the means±S.E.M. of DHPG-induced current amplitude recorded in cells transfected with myc-mGluR1α or myc-mGluR1α936Δplus GIRK1, GIRK2 (top right) or TRPC1 (bottom right) (n=3-7). In FIG. 6B, cortical neurons were pre-treated with NMDA (50 1μM, 1 h). Two hours after washing NMDA, neurons were treated with the mGluR1 agonist DHPG (50 μM) for 10 min in the absence or presence of LY367385. Total cell lysates were collected and probed with anti-Phospho Akt (Ser473) antibody. Without pretreatment with NMDA, DHPG increased the levels of Phospho-Akt (* p<0.05), an effect blocked by LY367385.
As reported in previous studies, mGluR1 activation can stimulate the PI3K-Akt signaling pathway through the mGluRI-Homer-PIEL-PI3K signaling complex. Since the Homer-binding domain of mGluR1α is located in the extreme C-terminus, which is removed after calpain-mediated truncation, it was interesting to determine whether this signaling mechanism remained functional. We first induced mGluR1α truncation by treating cortical neurons with 50 μM NMDA for 1 hour. Two hours after washing out NMDA, neurons were incubated with the mGluRI agonist DHPG (50 μM) for 10 min. Neurons were then lysed and levels of phosphorylated Akt were determined on Western blots. Consistent with a previous study, in cortical neurons that were not pre-treated with NMDA, DHPG induced an increase in phosphorylated Akt levels (p<0.05, n=4, Student's t-test for Control vs. DHPG), an effect which was blocked by the mGluR1 selective antagonist LY367385 (p<0.05, n=4, for DHPG+LY367385 vs. DHPG) (FIG. 6B). […] Thus, mGluR1α-PI3K-Akt signaling pathway was disrupted by calpain-mediated mGluR1α truncation.

spectrin = test: NMDA-induced calpain-specific spectrin degradation (145 kD fragment) in cortical neurons; format: cell-based; conditions: NMDA 10 μM, 1 h
Description: In this set of experiments, we determined which protease(s) mediated NMDA-induced truncation of mGluR1α. […] Cortical neurons were pretreated with a calpain inhibitor, the cell-permeable calpain-inhibitor III, or the caspase inhibitor cpm-VAD-CHO for 2 hours and then incubated in the absence or presence of 100 M NMDA for 1 hour. […] To further confirm calpain activation by NMDA under our experimental conditions, we determined the levels of the calpain-specific spectrin degradation fragments.

myc-mGluR1α [2] = test: DHPG-induced calcium transients in HEK293 cells transfected with myc-mGluR1α (calcium imaging); format: cell-based; conditions: 100 μM DHPG; untransfected cells
Text: (§2) In this set of experiments, HEK293 cells were co-transfected with DsRed (red fluorescent protein) and wild-type myc-mGluR1α or truncated myc-mGluR1α936Δ. The mGluRI agonist DHPG was used to induce mGluR1α-mediated calcium transients. In FIG. 5A, photos in the left show the expression of DsRed, labeling transfected cells; photos in the middle illustrate the fluorescent signal from the calcium indicator Oregon green 488 BAPTA-1 AM before and after DHPG application; photos in the right are obtained by subtracting “before DHPG” from “after DHPG”, thus representing DHPG-induced calcium transients.
(§3) The main signaling mechanism activated by mGluR1α consists of PI hydrolysis through G-protein and phospholipase C, which eventually leads to calcium release from internal calcium stores. Therefore we first performed calcium imaging to determine whether mGluR1α remains functional following C-terminal truncation. Wild-type mGluR1 (myc-mGluR1α) or the truncated form (myc-mGluR1α936Δ) was cotransfected with DsRed into HEK293 cells. Forty-eight hours after transfection, cells were loaded with a calcium reporter, Oregon green 488 BAPTA-1 AM (0.63% in extracellular solution).

myc-mGluR1α [3] = biological target: T1, myc-mGluR1α (Rattus norvegicus, UniProt P23385); test: as above; format: cell-based; conditions: 100 μM DHPG; myc-mGluR1α-transfected HEK293 cells
T1 sequence (P23385 19-1199): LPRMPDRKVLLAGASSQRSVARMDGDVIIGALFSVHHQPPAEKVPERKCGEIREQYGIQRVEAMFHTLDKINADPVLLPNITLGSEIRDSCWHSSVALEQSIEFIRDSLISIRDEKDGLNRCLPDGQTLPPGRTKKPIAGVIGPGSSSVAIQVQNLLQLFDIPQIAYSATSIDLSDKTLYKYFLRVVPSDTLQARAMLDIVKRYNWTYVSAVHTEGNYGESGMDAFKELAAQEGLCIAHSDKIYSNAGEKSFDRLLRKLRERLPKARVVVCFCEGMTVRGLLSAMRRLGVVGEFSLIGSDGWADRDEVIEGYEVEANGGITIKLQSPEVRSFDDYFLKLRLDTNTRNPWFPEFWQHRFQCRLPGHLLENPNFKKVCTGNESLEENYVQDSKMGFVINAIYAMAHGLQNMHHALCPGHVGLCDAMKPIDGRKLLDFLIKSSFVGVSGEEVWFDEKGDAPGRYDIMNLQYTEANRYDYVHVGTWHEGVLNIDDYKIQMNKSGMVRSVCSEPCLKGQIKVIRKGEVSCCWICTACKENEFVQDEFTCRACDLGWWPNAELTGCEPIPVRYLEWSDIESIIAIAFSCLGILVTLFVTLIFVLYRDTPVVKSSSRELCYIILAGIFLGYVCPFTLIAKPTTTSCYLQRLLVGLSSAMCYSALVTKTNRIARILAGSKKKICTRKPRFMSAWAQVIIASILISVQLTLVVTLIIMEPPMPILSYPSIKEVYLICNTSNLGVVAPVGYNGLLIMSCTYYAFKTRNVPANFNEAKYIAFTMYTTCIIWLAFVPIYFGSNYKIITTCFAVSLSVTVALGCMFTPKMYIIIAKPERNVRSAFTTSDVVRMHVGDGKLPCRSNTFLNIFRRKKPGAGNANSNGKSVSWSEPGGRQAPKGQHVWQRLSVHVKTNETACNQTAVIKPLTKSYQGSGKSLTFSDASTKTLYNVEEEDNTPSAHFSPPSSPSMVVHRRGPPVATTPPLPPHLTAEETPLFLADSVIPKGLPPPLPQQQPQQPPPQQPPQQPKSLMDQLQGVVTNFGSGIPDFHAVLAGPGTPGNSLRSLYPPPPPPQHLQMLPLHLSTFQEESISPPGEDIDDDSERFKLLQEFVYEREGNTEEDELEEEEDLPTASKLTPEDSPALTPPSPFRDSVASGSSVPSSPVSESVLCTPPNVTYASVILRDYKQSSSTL
Text: as §2, §3

myc-mGluR1α936Δ = myc-mGluR1α936Δ (Rattus norvegicus, UniProt P23385); test: DHPG-induced whole-cell currents in HEK293 cells transfected with myc-mGluR1α936Δ; format: cell-based; conditions: 100 μM DHPG
Sequence of myc-mGluR1α936Δ (P23385 19-936 limits assumed, stated change not applied): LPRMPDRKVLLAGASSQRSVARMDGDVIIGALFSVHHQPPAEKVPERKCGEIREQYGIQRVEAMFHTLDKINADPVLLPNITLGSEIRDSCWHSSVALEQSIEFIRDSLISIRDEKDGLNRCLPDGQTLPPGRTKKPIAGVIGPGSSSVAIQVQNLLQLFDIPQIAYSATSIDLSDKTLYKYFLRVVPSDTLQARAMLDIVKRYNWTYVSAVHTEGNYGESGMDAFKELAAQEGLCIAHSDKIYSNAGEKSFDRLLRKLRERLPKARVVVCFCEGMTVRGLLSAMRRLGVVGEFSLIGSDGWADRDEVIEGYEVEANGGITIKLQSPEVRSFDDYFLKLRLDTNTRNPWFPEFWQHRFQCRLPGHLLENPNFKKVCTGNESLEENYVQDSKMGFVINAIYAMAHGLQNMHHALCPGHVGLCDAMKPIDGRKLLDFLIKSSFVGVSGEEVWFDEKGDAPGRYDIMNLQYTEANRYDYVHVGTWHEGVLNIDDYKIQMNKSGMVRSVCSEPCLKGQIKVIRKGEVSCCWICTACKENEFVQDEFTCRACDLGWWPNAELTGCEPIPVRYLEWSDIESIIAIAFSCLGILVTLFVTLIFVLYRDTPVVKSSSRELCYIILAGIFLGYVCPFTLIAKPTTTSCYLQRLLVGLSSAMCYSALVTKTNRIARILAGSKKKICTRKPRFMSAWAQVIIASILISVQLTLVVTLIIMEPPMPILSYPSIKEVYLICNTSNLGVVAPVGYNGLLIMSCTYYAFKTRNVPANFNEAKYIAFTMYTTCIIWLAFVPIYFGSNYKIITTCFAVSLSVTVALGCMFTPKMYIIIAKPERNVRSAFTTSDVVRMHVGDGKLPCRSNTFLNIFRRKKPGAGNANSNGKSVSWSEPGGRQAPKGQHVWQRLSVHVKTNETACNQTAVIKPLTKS
Description: as §1, with “antibody.” for “antibody. Without pretreatment with NMDA, DHPG increased the levels of Phospho-Akt (* p<0.05), an effect blocked by LY367385.”
(§4) Because activation of mGluR1α can also stimulate non-selective cation excitatory postsynaptic conductances (EPSCs), we therefore analyzed mGluR1α-dependent currents before and after calpain-mediated truncation. We transfected HEK293 cells with either myc-mGluR1α or myc-mGluR1α936Δ plus GIRK1, GIRK2 or TRPC1.

myc-mGluR1α [4] = biological target: T1, myc-mGluR1α; test: DHPG-induced whole-cell currents in HEK293 cells transfected with myc-mGluR1α; format: cell-based; conditions: 100 μM DHPG
Description: as §1, with “antibody.” for “antibody. Without pretreatment with NMDA, DHPG increased the levels of Phospho-Akt (* p<0.05), an effect blocked by LY367385.”
as §4

mGluR1α [5] = test: In vivo truncation of mGluR1α in hippocampus after kainic acid injection; conditions: kainic acid 30 mg/kg s.c., mice
Description: (§5) The tat-peptide was injected i.p. 90 min before kainic acid injection. Note that the peptide had no effect on seizure intensity (bottom left).
The objective of this set of experiments was to verify that the feedback mechanism of the present invention could take place in vivo and participate in excitotoxicity. We used the kainic acid model of excitotoxicity, as this model has been widely used to study the mechanisms underlying in vivo excitotoxicity (Wang et al. Mol Neurobiol 31:3-16, 2005). Mice were injected with kainic acid and sacrificed at different times after injection. Levels of mGluR1α were determined in hippocampus with both Western blots and immunohistochemistry (FIG. 10).

hippocampal neurons = test: Kainic acid-induced neuronal damage (silver staining) and seizures in mice; format: in vivo; conditions: kainic acid 30 mg/kg s.c., mice, 7 days, silver staining
Description: as §5
They were sacrificed after 7 days and brains processed for silver staining, a marker of cell damage. Note the heavy labeling of the pyramidal cell layer in the KA alone group.
The effect of the tat-mGluR1 peptide on kainic acid-induced neuronal damage was also evaluated.

[6] = 100 μM LY367385 co-applied with 100 μM DHPG

N[C@@H](CCCP(=O)(O)O)C(=O)O [APV]
block of glutamate-induced truncation of mGluR1α (mGluR1α [1]; 1 h): completely blocked

Cc1cc(C(=O)O)ccc1[C@H](N)C(=O)O [LY367385]
block of glutamate-induced truncation of mGluR1α (mGluR1α [1]; 1 h): do not block | block of the neuroprotective effect of DHPG before NMDA (cortical neurons; [6]): completely blocked | block of the neurotoxic effect of DHPG after NMDA (cortical neurons; [6]): completely blocked | block of DHPG-induced increase in phosphorylated Akt (Phospho Akt (Ser473); 10 min in presence of LY367385): blocked

CC(C(O)c1ccc(O)cc1)N1CCC(Cc2ccccc2)CC1 (centres unmarked) [ifenprodil]
block of NMDA-induced truncation of mGluR1α (mGluR1α [1]; NMDA 10 μM, 1 h, ifenprodil 10 μM): selectively blocked | block of NMDA-mediated spectrin degradation (spectrin; ifenprodil 10 μM): blocked

CC(C)[C@H](NC(=O)OCc1ccccc1)C(=O)N[C@H](C=O)Cc1ccccc1 [calpain inhibitor III] (Cbz-Val-Phe-aldehyde)
block of NMDA-induced truncation of mGluR1α (mGluR1α [1]; inhibitor pretreatment 2 hours, then NMDA 100 μM 1 h, Calpi3 10 μM): significantly blocked

N#Cc1cc2[nH]c(=O)c(=O)[nH]c2cc1[N+](=O)[O-] [CNQX]
block of glutamate-induced truncation of mGluR1α (mGluR1α [1]; 1 h): had no effect

C[C@H](NC(c1cccc2[nH]c(=O)c(=O)[nH]c12)P(=O)(O)O)c1ccc(Br)cc1 (some centres unmarked) [NVP-AAM077]
block of NMDA-induced truncation of mGluR1α (mGluR1α [1]; NMDA 10 μM, 1 h, NVP-AAM077 0.4 μM): not | block of NMDA-mediated spectrin degradation (spectrin; NVP-AAM077 0.4 μM): not

N[C@H](C(=O)O)c1cc(O)cc(O)c1 [DHPG]
change in fluorescent calcium signals (myc-mGluR1α [2]): no change | calcium transient, max. ΔF/F (myc-mGluR1α [3]): 30.6±4.2% | mean amplitude of DHPG-induced whole-cell current (myc-mGluR1α936Δ; myc-mGluR1α936Δ/GIRK1,2-transfected cells): −1.4±0.8 pA | mean amplitude of DHPG-induced whole-cell current (myc-mGluR1α936Δ; myc-mGluR1α936Δ/TRPC1-transfected cells): −9.7±6.8 pA | average amplitude of DHPG-induced whole-cell current (myc-mGluR1α [4]; myc-mGluR1α/GIRK1,2-transfected cells): −24.2±6.3 pA | mean amplitude of DHPG-induced whole-cell current (myc-mGluR1α [4]; myc-mGluR1α/TRPC1-transfected cells): −36.7±9.6 pA | cell death (cortical neurons; DHPG 100 μM 1 hour after 100 μM NMDA 1 hour): 54% | cell death (cortical neurons; DHPG 100 μM 1 hour before 100 μM NMDA 1 hour): 29% | phosphorylated Akt levels (Phospho Akt (Ser473); 2 h after NMDA 50 μM 1 h pre-treatment): failed to increase | phosphorylated Akt levels (Phospho Akt (Ser473); neurons not pre-treated with NMDA): increase

C=C(C)[C@H]1CN[C@H](C(=O)O)[C@H]1CC(=O)O [kainic acid]
mGluR1 truncation in hippocampus following kainic acid injection (mGluR1α [5]): rapidly truncated | neuronal damage in hippocampal pyramidal neurons (hippocampal neurons): marked damage
